Measurements published in PubChem BioAssay (NCI).
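Following 48 hours of exposure in 96-well plates, responses at five concentrations were used to interpolate endpoints linearly. GI50 = concentration required for 50% inhibition of growth. TGI: concentration producing complete growth inhibition.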

Columns and labels:
Test in all cases: DTP human tumour cell line panel, 48 h
K-562 leukemia = tested on: K-562 leukemia
IGROV1 ovarian = tested on: IGROV1 ovarian
NCI-H226 lung = tested on: NCI-H226 lung
SF-539 CNS = tested on: SF-539 CNS
OVCAR-4 ovarian = tested on: OVCAR-4 ovarian
NCI-H522 lung = tested on: NCI-H522 lung
HS 578T breast = tested on: HS 578T breast
HL-60(TB) leukemia = tested on: HL-60(TB) leukemia
BT-549 breast = tested on: BT-549 breast
UACC-257 melanoma = tested on: UACC-257 melanoma

For `Cc1ccc2[nH]c(O)c(N=Nc3ccccc3[N+](=O)[O-])c2c1`, the TGI (K-562 leukemia) was over 100 µM, the TGI (IGROV1 ovarian) was 20 µM and the TGI (NCI-H226 lung) was 47.5 µM. For the same molecule, the TGI (SF-539 CNS) was 4.78 µM, the TGI (OVCAR-4 ovarian) was 6.18 µM and the TGI (NCI-H522 lung) was 5.29 µM. It also gave a TGI (HS 578T breast) of 28.9 µM, a TGI (HL-60(TB) leukemia) of over 100 µM and a TGI (BT-549 breast) of over 94.3 µM. The TGI (UACC-257 melanoma) was over 100 µM.
In the case of `COC(=O)C1=C(C(=O)ON)[C@@H]2C=C[C@@]1([C@@H](Cc1ccccc1)Nc1ccccc1)O2`, the GI50 (K-562 leukemia) is reported as 2460 nM, the TGI (K-562 leukemia) is reported as 8.72 µM and the GI50 (IGROV1 ovarian) is reported as 2.03 µM. For the same molecule, the TGI (IGROV1 ovarian) was 4.01 µM, the GI50 (NCI-H226 lung) was 14.5 µM and the TGI (NCI-H226 lung) was 28.8 µM. For the same molecule, the GI50 (SF-539 CNS) was 15.5 µM, the TGI (SF-539 CNS) was 29 µM and the GI50 (OVCAR-4 ovarian) was 1.62 µM. For the same molecule, the TGI (OVCAR-4 ovarian) was 3.04 µM, the GI50 (NCI-H522 lung) was 1480 nM and the TGI (NCI-H522 lung) was 3.41 µM. It also gave a GI50 (HS 578T breast) of 19.5 µM, a TGI (HS 578T breast) of 68.7 µM and a GI50 (HL-60(TB) leukemia) of 1450 nM. For the same molecule, the TGI (HL-60(TB) leukemia) was 6.18 µM, the GI50 (BT-549 breast) was 7.06 µM and the TGI (BT-549 breast) was 19.6 µM. It also gave a GI50 (UACC-257 melanoma) of 2.07 µM and a TGI (UACC-257 melanoma) of 4.5 µM.
Molecule `O=c1cc(-c2ccccc2)oc2c1ccc1ccccc12` has a GI50 (K-562 leukemia) of 49500 nM, a TGI (K-562 leukemia) of over 100 µM and a GI50 (IGROV1 ovarian) of 14.1 µM. For the same molecule, the TGI (IGROV1 ovarian) was 55.8 µM, the GI50 (NCI-H226 lung) was 18.9 µM and the TGI (NCI-H226 lung) was 59.5 µM. It also gave a GI50 (SF-539 CNS) of 18.6 µM, a TGI (SF-539 CNS) of 76.1 µM and a GI50 (OVCAR-4 ovarian) of 21.2 µM. The TGI (OVCAR-4 ovarian) was over 100 µM, the GI50 (NCI-H522 lung) was 30500 nM and the TGI (NCI-H522 lung) was over 100 µM. It also gave a GI50 (HS 578T breast) of 23.4 µM, a TGI (HS 578T breast) of 83.2 µM and a GI50 (HL-60(TB) leukemia) of 23900 nM. For the same molecule, the TGI (HL-60(TB) leukemia) was 56.8 µM, the GI50 (BT-549 breast) was 21 µM and the TGI (BT-549 breast) was 55.8 µM. For the same molecule, the GI50 (UACC-257 melanoma) was 54.8 µM and the TGI (UACC-257 melanoma) was over 100 µM.
Work on `S=C1SCN(Cc2ccccc2)CN1Cc1ccccc1` yielded a GI50 (K-562 leukemia) of 1150 nM, a TGI (K-562 leukemia) of 9 µM and a GI50 (IGROV1 ovarian) of 4.39 µM. It also gave a TGI (IGROV1 ovarian) of 12.2 µM, a GI50 (NCI-H226 lung) of over 32.6 µM and a TGI (NCI-H226 lung) of over 50.8 µM. It also gave a GI50 (SF-539 CNS) of 17.2 µM, a TGI (SF-539 CNS) of over 61.3 µM and a GI50 (OVCAR-4 ovarian) of 9.43 µM. The TGI (OVCAR-4 ovarian) was 27.6 µM, the GI50 (NCI-H522 lung) was 3830 nM and the TGI (NCI-H522 lung) was 10 µM. For the same molecule, the GI50 (HS 578T breast) was 3.02 µM, the TGI (HS 578T breast) was 25.6 µM and the GI50 (HL-60(TB) leukemia) was 1170 nM. The TGI (HL-60(TB) leukemia) was 3.83 µM, the GI50 (BT-549 breast) was 6.51 µM and the TGI (BT-549 breast) was 33.4 µM. It also gave a GI50 (UACC-257 melanoma) of 16 µM and a TGI (UACC-257 melanoma) of 33.2 µM.
With `CCc1cccc(NC(=O)Nc2ccc(Oc3ccc4nc(NC(=O)OC)[nH]c4c3)cc2)c1` the GI50 (K-562 leukemia) was 153 nM, the TGI (K-562 leukemia) was over 25 µM and the GI50 (IGROV1 ovarian) was 5.37 µM. The TGI (IGROV1 ovarian) was over 25 µM, the GI50 (NCI-H226 lung) was 5.03 µM and the TGI (NCI-H226 lung) was over 20.7 µM. It also gave a GI50 (SF-539 CNS) of 5.08 µM, a TGI (SF-539 CNS) of over 25 µM and a GI50 (OVCAR-4 ovarian) of 4.45 µM. The TGI (OVCAR-4 ovarian) was 9.89 µM, the GI50 (NCI-H522 lung) was 921 nM and the TGI (NCI-H522 lung) was 14.8 µM. The GI50 (HS 578T breast) was 1.41 µM, the TGI (HS 578T breast) was 19.2 µM and the GI50 (HL-60(TB) leukemia) was 2790 nM. It also gave a TGI (HL-60(TB) leukemia) of over 16.4 µM, a GI50 (BT-549 breast) of 8.24 µM and a TGI (BT-549 breast) of 24.4 µM. It also gave a GI50 (UACC-257 melanoma) of 3.58 µM and a TGI (UACC-257 melanoma) of over 22.3 µM.
With `COc1ccc2nc3c(cc2c1)C(=O)CC(c1ccccc1)C3` (stereo not drawn) the GI50 (K-562 leukemia) was 359 nM, the TGI (K-562 leukemia) was over 100 µM and the GI50 (IGROV1 ovarian) was 2.32 µM. The TGI (IGROV1 ovarian) was over 100 µM, the GI50 (NCI-H226 lung) was 2.53 µM and the TGI (NCI-H226 lung) was over 100 µM. The GI50 (SF-539 CNS) was 1.22 µM, the TGI (SF-539 CNS) was 5.15 µM and the GI50 (OVCAR-4 ovarian) was over 100 µM. It also gave a TGI (OVCAR-4 ovarian) of over 100 µM, a GI50 (NCI-H522 lung) of 401 nM and a TGI (NCI-H522 lung) of over 67.4 µM. The GI50 (HS 578T breast) was 0.882 µM, the TGI (HS 578T breast) was over 100 µM and the GI50 (HL-60(TB) leukemia) was 301 nM. For the same molecule, the GI50 (BT-549 breast) was 1.36 µM, the TGI (BT-549 breast) was over 100 µM and the GI50 (UACC-257 melanoma) was over 100 µM. It also gave a TGI (UACC-257 melanoma) of over 100 µM.
For `COc1ccc(-c2cc(-c3ccc(OC)cc3)nc(NCCCNc3ccnc4cc(Cl)ccc34)n2)cc1`, the GI50 (K-562 leukemia) was 1790 nM, the TGI (K-562 leukemia) was 4.6 µM and the GI50 (IGROV1 ovarian) was 1.51 µM. It also gave a TGI (IGROV1 ovarian) of 3.12 µM, a GI50 (NCI-H226 lung) of 11.3 µM and a TGI (NCI-H226 lung) of 28.2 µM. For the same molecule, the GI50 (SF-539 CNS) was 7.16 µM, the TGI (SF-539 CNS) was 21.4 µM and the GI50 (OVCAR-4 ovarian) was 1.65 µM. It also gave a TGI (OVCAR-4 ovarian) of 3.35 µM, a GI50 (NCI-H522 lung) of 1920 nM and a TGI (NCI-H522 lung) of 3.81 µM. It also gave a GI50 (HS 578T breast) of 14.9 µM, a TGI (HS 578T breast) of 44.8 µM and a GI50 (HL-60(TB) leukemia) of 1910 nM. The TGI (HL-60(TB) leukemia) was 3.86 µM, the GI50 (BT-549 breast) was 13.1 µM and the TGI (BT-549 breast) was 27.8 µM. It also gave a GI50 (UACC-257 melanoma) of 1.96 µM and a TGI (UACC-257 melanoma) of 3.83 µM.
Molecule `CC1(C)CCc2c(c(N=Nc3ccccc3F)c3ccccc3c2O)O1` has a GI50 (K-562 leukemia) of over 100000 nM, a TGI (K-562 leukemia) of over 100 µM and a GI50 (IGROV1 ovarian) of 32.4 µM. It also gave a TGI (IGROV1 ovarian) of over 100 µM, a GI50 (NCI-H226 lung) of 38.7 µM and a TGI (NCI-H226 lung) of over 100 µM. For the same molecule, the GI50 (SF-539 CNS) was 21.2 µM, the TGI (SF-539 CNS) was 40.4 µM and the GI50 (OVCAR-4 ovarian) was 66.2 µM. The TGI (OVCAR-4 ovarian) was over 100 µM, the GI50 (NCI-H522 lung) was 38600 nM and the TGI (NCI-H522 lung) was over 100 µM. The GI50 (HS 578T breast) was 28.6 µM, the TGI (HS 578T breast) was 99.7 µM and the GI50 (HL-60(TB) leukemia) was over 100000 nM. For the same molecule, the TGI (HL-60(TB) leukemia) was over 100 µM, the GI50 (BT-549 breast) was 33.5 µM and the TGI (BT-549 breast) was over 100 µM. The GI50 (UACC-257 melanoma) was over 100 µM and the TGI (UACC-257 melanoma) was over 100 µM.
For `CCN(CC)CCn1c(=O)c2cc(OC)c(OC)cc2c2ccc3cc4c(cc3c21)OCO4`, the GI50 (K-562 leukemia) was 536 nM, the GI50 (IGROV1 ovarian) was 0.491 µM and the TGI (IGROV1 ovarian) was 21.4 µM. The GI50 (NCI-H226 lung) was 0.446 µM, the TGI (NCI-H226 lung) was over 50.6 µM and the GI50 (SF-539 CNS) was 0.253 µM. It also gave a TGI (SF-539 CNS) of 0.818 µM, a GI50 (OVCAR-4 ovarian) of 0.477 µM and a TGI (OVCAR-4 ovarian) of 19.9 µM. The GI50 (NCI-H522 lung) was 151 nM, the TGI (NCI-H522 lung) was 21 µM and the GI50 (HS 578T breast) was 12.4 µM. It also gave a TGI (HS 578T breast) of 45.4 µM, a GI50 (HL-60(TB) leukemia) of 721 nM and a TGI (HL-60(TB) leukemia) of 3.16 µM. For the same molecule, the GI50 (BT-549 breast) was 0.456 µM, the TGI (BT-549 breast) was 17.2 µM and the GI50 (UACC-257 melanoma) was 0.472 µM. The TGI (UACC-257 melanoma) was 22.2 µM.
